According to the OligoGym collection:
Where “and” joins values, the source holds several entries; their conditions need not be identical. Equal values may be shown once. HELM strings list units from the 5' end as sugar, base in round brackets, then linkage (d deoxyribose, r ribose, m 2'-O-methyl, p phosphodiester). Strings are as the collection lists them, not checked against the first reports. ss, as = sense and antisense strand; [s4r] = 4'-thioribose

Conditions: siRNA
Also: test system not given here.

Substance: RNA1{[s4r](A)p.[s4r](A)p.[s4r](A)p.[s4r](C)p.[s4r](A)p.[s4r](U)p.r(G)p.r(C)p.r(A)p.r(G)p.r(A)p.r(A)p.r(A)p.[s4r](A)p.[s4r](U)p.[s4r](G)p.[s4r](C)p.[s4r](U)p.[s4r](G)p.r(T)p.r(T)}|RNA2{r(C)p.r(A)p.r(G)p.r(C)p.r(A)p.r(U)p.r(U)p.r(U)p.r(U)p.r(C)p.r(U)p.r(G)p.r(C)p.r(A)p.r(U)p.[s4r](G)p.[s4r](U)p.[s4r](U)p.[s4r](U)p.r(T)p.r(T)}$$$RNA1{StrandType:ss}|RNA2{StrandType:as}$
- target mRNA knockdown: 84.4%

Substance: RNA1{[s4r](A)p.[s4r](A)p.[s4r](A)p.[s4r](C)p.[s4r](A)p.[s4r](U)p.r(G)p.r(C)p.r(A)p.r(G)p.r(A)p.r(A)p.r(A)p.[s4r](A)p.[s4r](U)p.[s4r](G)p.[s4r](C)p.[s4r](U)p.[s4r](G)p.r(T)p.r(T)}|RNA2{r(C)p.r(A)p.r(G)p.r(C)p.r(A)p.r(U)p.r(U)p.r(U)p.r(U)p.r(C)p.r(U)p.r(G)p.r(C)p.r(A)p.r(U)p.r(G)p.r(U)p.r(U)p.r(U)p.r(T)p.r(T)}$$$RNA1{StrandType:ss}|RNA2{StrandType:as}$
- target mRNA knockdown: 75.4% and 87%

Substance: RNA1{[s4r](A)p.[s4r](A)p.[s4r](A)p.[s4r](C)p.r(A)p.r(U)p.r(G)p.r(C)p.r(A)p.r(G)p.r(A)p.r(A)p.r(A)p.r(A)p.r(U)p.[s4r](A)p.[s4r](C)p.[s4r](C)p.[s4r](U)p.r(T)p.r(T)}|RNA2{[s4r](C)p.[s4r](A)p.r(G)p.r(C)p.r(A)p.r(U)p.r(U)p.r(U)p.r(U)p.r(C)p.r(U)p.r(G)p.r(C)p.r(A)p.r(U)p.r(G)p.r(U)p.[s4r](U)p.[s4r](U)p.r(T)p.r(T)}$$$RNA1{StrandType:ss}|RNA2{StrandType:as}$
- target mRNA knockdown: 80.8%

Substance: RNA1{[s4r](A)p.[s4r](A)p.[s4r](A)p.[s4r](C)p.r(A)p.r(U)p.r(G)p.r(C)p.r(A)p.r(G)p.r(A)p.r(A)p.r(A)p.r(A)p.r(U)p.[s4r](G)p.[s4r](C)p.[s4r](C)p.[s4r](U)p.r(T)p.r(T)}|RNA2{r(C)p.r(A)p.r(G)p.r(C)p.r(A)p.r(U)p.r(U)p.r(U)p.r(U)p.r(C)p.r(U)p.r(G)p.r(C)p.r(A)p.r(U)p.[s4r](G)p.[s4r](U)p.[s4r](U)p.[s4r](U)p.r(T)p.r(T)}$$$RNA1{StrandType:ss}|RNA2{StrandType:as}$
- target mRNA knockdown: 87.3%

Substance: RNA1{[s4r](A)p.[s4r](A)p.[s4r](A)p.[s4r](C)p.r(A)p.r(U)p.r(G)p.r(C)p.r(A)p.r(G)p.r(A)p.r(A)p.r(A)p.r(A)p.r(U)p.[s4r](G)p.[s4r](C)p.[s4r](C)p.[s4r](U)p.r(T)p.r(T)}|RNA2{r(C)p.r(A)p.r(G)p.r(C)p.r(A)p.r(U)p.r(U)p.r(U)p.r(U)p.r(C)p.r(U)p.r(G)p.r(C)p.r(A)p.r(U)p.r(G)p.r(U)p.[s4r](U)p.[s4r](U)p.r(T)p.r(T)}$$$RNA1{StrandType:ss}|RNA2{StrandType:as}$
- target mRNA knockdown: 87.7%

Substance: RNA1{[s4r](A)p.[s4r](A)p.[s4r](A)p.[s4r](C)p.r(A)p.r(U)p.r(G)p.r(C)p.r(A)p.r(G)p.r(A)p.r(A)p.r(A)p.r(A)p.r(U)p.[s4r](G)p.[s4r](C)p.[s4r](U)p.[s4r](G)p.r(T)p.r(T)}|RNA2{[s4r](C)p.[s4r](A)p.r(G)p.r(C)p.r(A)p.r(U)p.r(U)p.r(U)p.r(U)p.r(C)p.r(U)p.r(G)p.r(C)p.r(A)p.r(U)p.r(G)p.r(U)p.[s4r](U)p.[s4r](U)p.r(T)p.r(T)}$$$RNA1{StrandType:ss}|RNA2{StrandType:as}$
- target mRNA knockdown: 66.3%

Substance: RNA1{[s4r](A)p.[s4r](A)p.[s4r](A)p.[s4r](C)p.r(A)p.r(U)p.r(G)p.r(C)p.r(A)p.r(G)p.r(A)p.r(A)p.r(A)p.r(A)p.r(U)p.[s4r](G)p.[s4r](C)p.[s4r](U)p.[s4r](G)p.r(T)p.r(T)}|RNA2{r(C)p.r(A)p.r(G)p.r(C)p.r(A)p.r(U)p.r(U)p.r(U)p.r(U)p.r(C)p.r(U)p.r(G)p.r(C)p.r(A)p.r(U)p.[s4r](G)p.[s4r](U)p.[s4r](U)p.[s4r](U)p.r(T)p.r(T)}$$$RNA1{StrandType:ss}|RNA2{StrandType:as}$
- target mRNA knockdown: 91%

Substance: RNA1{[s4r](A)p.[s4r](A)p.[s4r](A)p.[s4r](C)p.r(A)p.r(U)p.r(G)p.r(C)p.r(A)p.r(G)p.r(A)p.r(A)p.r(A)p.r(A)p.r(U)p.[s4r](G)p.[s4r](C)p.[s4r](U)p.[s4r](G)p.r(T)p.r(T)}|RNA2{r(C)p.r(A)p.r(G)p.r(C)p.r(A)p.r(U)p.r(U)p.r(U)p.r(U)p.r(C)p.r(U)p.r(G)p.r(C)p.r(A)p.r(U)p.r(G)p.r(U)p.[s4r](U)p.[s4r](U)p.r(T)p.r(T)}$$$RNA1{StrandType:ss}|RNA2{StrandType:as}$
- target mRNA knockdown: 85.5%

Substance: RNA1{[s4r](A)p.[s4r](A)p.[s4r](A)p.[s4r](C)p.r(A)p.r(U)p.r(G)p.r(C)p.r(A)p.r(G)p.r(A)p.r(A)p.r(A)p.r(A)p.r(U)p.[s4r](G)p.[s4r](C)p.[s4r](U)p.[s4r](G)p.r(T)p.r(T)}|RNA2{r(C)p.r(A)p.r(G)p.r(C)p.r(A)p.r(U)p.r(U)p.r(U)p.r(U)p.r(C)p.r(U)p.r(G)p.r(C)p.r(A)p.r(U)p.r(G)p.r(U)p.r(U)p.r(U)p.r(T)p.r(T)}$$$RNA1{StrandType:ss}|RNA2{StrandType:as}$
- target mRNA knockdown: 79.1%

Substance: RNA1{[s4r](A)p.[s4r](A)p.[s4r](A)p.[s4r](C)p.r(A)p.r(U)p.r(G)p.r(C)p.r(A)p.r(G)p.r(A)p.r(A)p.r(A)p.r(A)p.r(U)p.r(G)p.r(C)p.r(U)p.r(G)p.r(T)p.r(T)}|RNA2{[s4r](C)p.[s4r](A)p.r(G)p.r(C)p.r(A)p.r(U)p.r(U)p.r(U)p.r(U)p.r(C)p.r(U)p.r(G)p.r(C)p.r(A)p.r(U)p.r(G)p.r(U)p.[s4r](U)p.[s4r](U)p.r(T)p.r(T)}$$$RNA1{StrandType:ss}|RNA2{StrandType:as}$
- target mRNA knockdown: 60.2%

Substance: RNA1{[s4r](A)p.[s4r](A)p.[s4r](A)p.[s4r](C)p.r(A)p.r(U)p.r(G)p.r(C)p.r(A)p.r(G)p.r(A)p.r(A)p.r(A)p.r(A)p.r(U)p.r(G)p.r(C)p.r(U)p.r(G)p.r(T)p.r(T)}|RNA2{r(C)p.r(A)p.r(G)p.r(C)p.r(A)p.r(U)p.r(U)p.r(U)p.r(U)p.r(C)p.r(U)p.r(G)p.r(C)p.r(A)p.r(U)p.[s4r](G)p.[s4r](U)p.[s4r](U)p.[s4r](U)p.r(T)p.r(T)}$$$RNA1{StrandType:ss}|RNA2{StrandType:as}$
- target mRNA knockdown: 80.7%

Substance: RNA1{[s4r](A)p.[s4r](A)p.[s4r](A)p.[s4r](C)p.r(A)p.r(U)p.r(G)p.r(C)p.r(A)p.r(G)p.r(A)p.r(A)p.r(A)p.r(A)p.r(U)p.r(G)p.r(C)p.r(U)p.r(G)p.r(T)p.r(T)}|RNA2{r(C)p.r(A)p.r(G)p.r(C)p.r(A)p.r(U)p.r(U)p.r(U)p.r(U)p.r(C)p.r(U)p.r(G)p.r(C)p.r(A)p.r(U)p.r(G)p.r(U)p.[s4r](U)p.[s4r](U)p.r(T)p.r(T)}$$$RNA1{StrandType:ss}|RNA2{StrandType:as}$
- target mRNA knockdown: 76.5%

Substance: RNA1{[s4r](A)p.[s4r](A)p.[s4r](A)p.[s4r](C)p.r(A)p.r(U)p.r(G)p.r(C)p.r(A)p.r(G)p.r(A)p.r(A)p.r(A)p.r(A)p.r(U)p.r(G)p.r(C)p.r(U)p.r(G)p.r(T)p.r(T)}|RNA2{r(C)p.r(A)p.r(G)p.r(C)p.r(A)p.r(U)p.r(U)p.r(U)p.r(U)p.r(C)p.r(U)p.r(G)p.r(C)p.r(A)p.r(U)p.r(G)p.r(U)p.r(U)p.r(U)p.r(T)p.r(T)}$$$RNA1{StrandType:ss}|RNA2{StrandType:as}$
- target mRNA knockdown: 70.4%

Substance: RNA1{[s4r](A)p.[s4r](A)p.r(A)p.r(C)p.r(A)p.r(U)p.r(G)p.r(C)p.r(A)p.r(G)p.r(A)p.r(A)p.r(A)p.r(A)p.r(U)p.r(G)p.r(C)p.r(U)p.r(G)p.r(T)p.r(T)}|RNA2{[s4r](C)p.[s4r](A)p.r(G)p.r(C)p.r(A)p.r(U)p.r(U)p.r(U)p.r(U)p.r(C)p.r(U)p.r(G)p.r(C)p.r(A)p.r(U)p.r(G)p.r(U)p.[s4r](U)p.[s4r](U)p.r(T)p.r(T)}$$$RNA1{StrandType:ss}|RNA2{StrandType:as}$
- target mRNA knockdown: 44.8%

Substance: RNA1{[s4r](A)p.[s4r](A)p.r(A)p.r(C)p.r(A)p.r(U)p.r(G)p.r(C)p.r(A)p.r(G)p.r(A)p.r(A)p.r(A)p.r(A)p.r(U)p.r(G)p.r(C)p.r(U)p.r(G)p.r(T)p.r(T)}|RNA2{r(C)p.r(A)p.r(G)p.r(C)p.r(A)p.r(U)p.r(U)p.r(U)p.r(U)p.r(C)p.r(U)p.r(G)p.r(C)p.r(A)p.r(U)p.[s4r](G)p.[s4r](U)p.[s4r](U)p.[s4r](U)p.r(T)p.r(T)}$$$RNA1{StrandType:ss}|RNA2{StrandType:as}$
- target mRNA knockdown: 70.9%

Substance: RNA1{[s4r](A)p.[s4r](A)p.r(A)p.r(C)p.r(A)p.r(U)p.r(G)p.r(C)p.r(A)p.r(G)p.r(A)p.r(A)p.r(A)p.r(A)p.r(U)p.r(G)p.r(C)p.r(U)p.r(G)p.r(T)p.r(T)}|RNA2{r(C)p.r(A)p.r(G)p.r(C)p.r(A)p.r(U)p.r(U)p.r(U)p.r(U)p.r(C)p.r(U)p.r(G)p.r(C)p.r(A)p.r(U)p.r(G)p.r(U)p.[s4r](U)p.[s4r](U)p.r(T)p.r(T)}$$$RNA1{StrandType:ss}|RNA2{StrandType:as}$
- target mRNA knockdown: 72.4%

Substance: RNA1{[s4r](A)p.[s4r](A)p.r(A)p.r(C)p.r(A)p.r(U)p.r(G)p.r(C)p.r(A)p.r(G)p.r(A)p.r(A)p.r(A)p.r(A)p.r(U)p.r(G)p.r(C)p.r(U)p.r(G)p.r(T)p.r(T)}|RNA2{r(C)p.r(A)p.r(G)p.r(C)p.r(A)p.r(U)p.r(U)p.r(U)p.r(U)p.r(C)p.r(U)p.r(G)p.r(C)p.r(A)p.r(U)p.r(G)p.r(U)p.r(U)p.r(U)p.r(T)p.r(T)}$$$RNA1{StrandType:ss}|RNA2{StrandType:as}$
- target mRNA knockdown: 69.5%

Substance: RNA1{[s4r](C)p.[s4r](G)p.[s4r](U)p.[s4r](A)p.[s4r](C)p.[s4r](G)p.[s4r](C)p.[s4r](G)p.[s4r](G)p.[s4r](A)p.[s4r](A)p.[s4r](U)p.[s4r](A)p.[s4r](C)p.[s4r](U)p.[s4r](U)p.[s4r](C)p.[s4r](G)p.[s4r](A)p.r(T)p.r(T)}|RNA2{r(U)p.r(C)p.r(G)p.r(A)p.r(A)p.r(G)p.r(U)p.r(A)p.r(U)p.r(U)p.r(C)p.r(C)p.r(G)p.r(C)p.r(G)p.r(U)p.r(A)p.r(C)p.r(G)p.r(T)p.r(T)}$$$RNA1{StrandType:ss}|RNA2{StrandType:as}$
- target mRNA knockdown: 60.3%
